# Test results reported in patent EP0237929B1, “3,5-Disubstituted pyrocatechol derivatives” (F. HOFFMANN-LA ROCHE AG, priority 1986, dated 1987).
# Tests used:
# [1] = target: T1, Catechol-O-Methyl-Transferase (COMT) (Rattus norvegicus, UniProt P22734); experiment: COMT inhibition in rat liver homogenates; assay type: biochemical, Ratten
# T1 construct: Man inkubiert Rattenleber-Homogenate in Gegenwart eines geeigneten Substrates; from tissue; host or cells: rat liver homogenate
# T1 sequence (P22734 1-264): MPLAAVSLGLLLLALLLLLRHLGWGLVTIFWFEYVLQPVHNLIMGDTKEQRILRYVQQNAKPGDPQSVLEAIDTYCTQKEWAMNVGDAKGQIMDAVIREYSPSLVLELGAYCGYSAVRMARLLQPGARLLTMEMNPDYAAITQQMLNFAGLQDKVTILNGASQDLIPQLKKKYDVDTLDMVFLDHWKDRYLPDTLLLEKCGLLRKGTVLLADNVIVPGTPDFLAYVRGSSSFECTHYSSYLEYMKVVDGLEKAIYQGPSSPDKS
# Source text: Diese Wirkung kann wie folgt quantitativ erfasst werden: Man inkubiert Rattenleber-Homogenate in Gegenwart eines geeigneten Substrates wie in J. Neurochem. […] In einer zweiten Versuchsreihe wird die Inkubation in Gegenwart einer Verbindung der Formel Ia durchgeführt. Aus der Differenz der ermittelten COMT-Aktivitäten lässt sich dann die IC₅₀ berechnen. Die IC₅₀ wird in nMol/l angegeben und ist diejenige Konzentration in der Inkubationsmischung, welche notwendig ist, um die COMT-Aktivität um 50% herabzusetzen.
# [2] = Acute toxicity after a single oral administration to mice; conditions: mouse, in vivo, p.o., read-out: DL₅₀
SMILES,IC50 [1] [nM],LD50 [2] [mg/kg]
"O=C(c1cc(O)c(O)c([N+](=O)[O-])c1)c1ccccc1F [2'-Fluor-3,4-dihydroxy-5-nitrobenzophenon]",42,312 to 625
"CCCCOC(=O)c1cc(O)c(O)c([N+](=O)[O-])c1 [3,4-Dihydroxy-5-nitrobenzoesäure-n-butylester]",20,312 to 625
"O=C(c1ccccc1)c1cc(O)c(O)c([N+](=O)[O-])c1 [3,4-Dihydroxy-5-nitrobenzophenon]",48,500 to 1000
"O=C(c1cc(O)c(O)c([N+](=O)[O-])c1)c1ccccn1 [3,4-Dihydroxy-5-nitrophenyl-2-pyridylketon]",53.4,1250 to 2500
"O=C(c1cccnc1)c1cc(O)c(O)c([N+](=O)[O-])c1 [3,4-Dihydroxy-5-nitrophenyl-3-pyridylketon]",47,1000 to 2000
"O=C(c1ccncc1)c1cc(O)c(O)c([N+](=O)[O-])c1 [3,4-Dihydroxy-5-nitrophenyl-4-pyridylketon]",67,1000 to 2000
"CCOC(=O)C(=O)c1cc(O)c(O)c([N+](=O)[O-])c1 [3,4-Dihydroxy-5-nitrophenylglyoxylsäureäthylester]",48.1,1250 to 2500
"CCCCOC(=O)C=Cc1cc(O)c(O)c([N+](=O)[O-])c1 [3,4-Dihydroxy-5-nitrozimtsäure-n-butylester]",25.9,2500 to 5000
"O=[N+]([O-])c1cc(O)c(O)c([N+](=O)[O-])c1 [3,5-Dinitropyrocatechol]",,500 to 1000
